{"source": "patent US20040101888A1", "about": "“Vector system used in screening active substances” (Max-Delbruck-Centrum Fur Molekulare Medizin, priority 2001, published 2004)", "test_system": "TCRS containing NIH-3T3 fibroblasts cells", "assay": "Detection of cellular translational control activities by TCRS reporter in drug-treated cells", "assay_type": "cell-based", "details": "TCRS containing NIH-3T3 fibroblasts treated with drug", "excerpt": "TCRS functions in cell lines. To examine the applicability of the TCRS in vertebrate cells we introduced the improved TCRS-vector into fibroblasts by transient transfection. […] Importantly, removal of the regulatory uORF by […] point mutation of its translation initiation site results in loss of translational controlled SR protein expression. Accordingly, the TCRS can be used to screen for drugs or to monitor pharmacological effects in tissue culture.\nTo examine the potential of the TCRS for detection of changes in translation control activities by external supplied drugs, we treated the TCRS containing NIH-3T3 fibroblasts cells with aminopurine and rapamycin, respectively.\nTreatment with translational active drugs, such as rapamycin or aminopurine, result in differential activation of distinct translation control pathways, causing a shift in reporter protein expression. Shift in reporter expression was also observed with co-transfected expression vectors encoding eucaryotic translation initiation factors eIF2or eIF4E, or mutants thereof. Reporter protein expression shifts were dependent on an intact uORF.", "data": [{"substance": "aminopurine", "values": [{"measurement": "changes of the reporter peptide levels (PR and SR reporter protein expression from TCRS)", "value": "Differential changes of the peptide levels were observed"}]}]}
